Data reported in patent US20080280951A1, “Salt Il” (ASTRAZENECA AB, priority 2005, published 2008).
pIC50: −log10 of the molar value. Like-named read-outs stand apart in the source and are kept apart here.

Assays:
[1] = Hygroscopicity determination (vapor sorption); assay type: physicochemical; details: room temperature (25° C.)
Method: Hygroscopicity Determination
The weight change of a test sample at room temperature (25° C.) and at 80% relative humidity (RH) was investigated by recording adsorption-desorption isotherms using a symmetric vapor-sorption analyser SGA-100 (VTI Corporation) using different methods, the main features being: a single sorption/desorption cycle from 0 to 90% RH in 10% RH steps with a dm/dt trigger value of 0.002%, (dm/dt=change in mass with time—when the balance stability is within this value the next step is automatically started, however, if those conditions are not achieved there is a default maximum time for each step of 6 hours). Approximately 2 to 10 mg of the test sample was placed in a sample holder and exposed to different relative humidities.

[2] = Estimated solubility of the salt in organic solvents; assay type: physicochemical; details: organic solvent or mixture
Method: (a) Form B was prepared by dissolving, in a vial, 20% w of a sample of the furoate salt prepared by the method of Example 1(b) (Form A) in a solvent such as ethanol (16 mg/ml) or 2-butanol (8 mg/ml). The figures in brackets indicate the estimated solubility of the salt in these solvents. The vial was then sealed and the suspension was homogenised at ambient temperature (20° C.) using a magnet. Stirring and temperature were maintained for a period of at least 7 days after which time a sample of the material obtained was dried and tested by XRPD. XRPD confirmed that there had been complete transformation of Form A to Form B.

human CCR1 = target: T1, human CCR1 (Homo sapiens, UniProt P32246); experiment: Human CCR1 binding assay; details: HEK-CCR1 membranes, displacement of 33 pM [125I] MIP-1α
T1 construct: expressed in transfected cells; membrane preparation
T1 sequence (P32246 1-355): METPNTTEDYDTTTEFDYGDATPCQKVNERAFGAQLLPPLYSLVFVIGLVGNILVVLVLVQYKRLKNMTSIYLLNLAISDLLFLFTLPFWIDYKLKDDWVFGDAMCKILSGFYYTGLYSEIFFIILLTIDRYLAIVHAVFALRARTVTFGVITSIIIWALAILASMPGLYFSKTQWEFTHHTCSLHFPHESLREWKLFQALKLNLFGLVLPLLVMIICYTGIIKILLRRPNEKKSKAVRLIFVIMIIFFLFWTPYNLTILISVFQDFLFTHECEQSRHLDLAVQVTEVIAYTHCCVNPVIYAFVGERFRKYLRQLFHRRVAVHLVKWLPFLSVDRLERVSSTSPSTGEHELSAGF
Method: HEK293 cells, from ECACC, stably expressing recombinant human CCR1 (HEK-CCR1) were used to prepare cell membranes containing CCR1. The membranes were stored at −70° C. The concentration of membranes of each batch was adjusted to 10% specific binding of 33 pM [^125I] MIP-1α.
100 μL of HEK-CCR1 membranes diluted in assay buffer pH 7.4 (137 mM NaCl (Merck, Cat No 1.06404), 5.7 mM Glucose (Sigma, Cat No G5400), 2.7 mM KCl (Sigma, Cat No P-9333), 0.36 mM NaH2PO4×H2O (Merck, Cat No 1.06346), 10 mM HEPES (Sigma, Cat No H3375), 0.1% (w/v) Gelatine (Sigma, Cat No G2625)) with the addition of 17500 units/L Bacitracin (Sigma, Cat No B 1025) were added to each well of the 96 well filter plate (0.45 μm opaque Millipore cat no MHVB N4550). […] 12 μl assay buffer with 10% DMSO was added to certain wells (without compound) to detect maximal binding (B0).
12 μL [^125I] MIP-1α, diluted in assay buffer to a final concentration in the wells of 33 pM, was added to all wells. The plates with lid were then incubated for 1.5 hrs at room temperature. After incubation the wells were emptied by vacuum filtration (MultiScreen Resist Vacuum Manifold system, Millipore) and washed once with 200 μl assay buffer. After the wash, all wells received an addition of 50 μL of scintillation fluid (OptiPhase “Supermix”, Wallac Oy, Turko, Finland). Bound [^125I] MIP-1α was measured using a Wallac Trilux 1450 MicroBeta counter. […]

CC(=O)Nc1ccc(O)cc1OC[C@@](C)(O)CNC1CCN(Cc2ccc(Cl)cc2)CC1 [Form A, N-{2-[((2S)-3-{[1-(4-chlorobenzyl)piperidin-4-yl]amino}-2-hydroxy-2-methylpropyl)oxy]-4-hydroxyphenyl}acetamide furoate]
Water Uptake (% w/w) at 80% RH [1]: <0.8 % w/w | solubility ([2]; solvent 2-butanol, read-out: estimated solubility of the salt in 2-butanol): 8 mg/mL | solubility ([2]; solvent ethanol, read-out: estimated solubility of the salt in ethanol): 16 mg/mL

CC(=O)Nc1ccc(O)cc1OC[C@@](C)(O)CNC1CCN(Cc2ccc(Cl)cc2)CC1 [N-{2-[((2S)-3-{[1-(4-chlorobenzyl)piperidin-4-yl]amino}-2-hydroxy-2-methylpropyl)oxy]-4-hydroxyphenyl}acetamide ditrifluoroacetate]
pIC50 (human CCR1): > 7.30
